In article PMC11085544, “Anticholinesterase Activity of Methanolic Extract of Amorpha fruticosa Flowers and Isolation of Rotenoids and Putrescine and Spermidine Derivatives” (Plants, 2024):

Legend:
Format in all cases: biochemical
[1] = target: T1, AChE (acetylcholinesterase) (Electrophorus electricus, UniProt O42275); test: Ellman colorimetric assay with electric eel AChE, % inhibition at […]; conditions: 100 µM
[2] = target: T1, AChE (acetylcholinesterase); test: Ellman colorimetric assay with electric eel AChE
[3] = target: T2, BuChE (butyrylcholinesterase) (Equus caballus, UniProt P81908); test: Ellman colorimetric assay with equine serum BuChE, % inhibition at […]
T2 construct: gene BCHE
T2 sequence (P81908 whole entry): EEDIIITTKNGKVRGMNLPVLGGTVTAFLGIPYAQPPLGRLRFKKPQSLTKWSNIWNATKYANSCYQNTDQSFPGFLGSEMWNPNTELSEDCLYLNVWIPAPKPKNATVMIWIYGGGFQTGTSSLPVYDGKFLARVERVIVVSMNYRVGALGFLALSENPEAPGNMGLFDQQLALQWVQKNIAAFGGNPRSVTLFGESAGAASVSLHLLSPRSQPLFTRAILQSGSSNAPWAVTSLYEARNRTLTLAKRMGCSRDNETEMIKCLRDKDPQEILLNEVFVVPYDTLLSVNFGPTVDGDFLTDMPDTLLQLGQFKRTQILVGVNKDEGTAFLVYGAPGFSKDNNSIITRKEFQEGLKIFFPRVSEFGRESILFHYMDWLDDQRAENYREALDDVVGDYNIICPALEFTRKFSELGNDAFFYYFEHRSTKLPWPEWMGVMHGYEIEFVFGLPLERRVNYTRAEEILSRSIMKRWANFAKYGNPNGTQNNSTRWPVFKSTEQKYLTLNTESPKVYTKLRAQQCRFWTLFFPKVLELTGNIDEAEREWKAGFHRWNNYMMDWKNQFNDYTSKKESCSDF

T1 sequence (O42275 24-633): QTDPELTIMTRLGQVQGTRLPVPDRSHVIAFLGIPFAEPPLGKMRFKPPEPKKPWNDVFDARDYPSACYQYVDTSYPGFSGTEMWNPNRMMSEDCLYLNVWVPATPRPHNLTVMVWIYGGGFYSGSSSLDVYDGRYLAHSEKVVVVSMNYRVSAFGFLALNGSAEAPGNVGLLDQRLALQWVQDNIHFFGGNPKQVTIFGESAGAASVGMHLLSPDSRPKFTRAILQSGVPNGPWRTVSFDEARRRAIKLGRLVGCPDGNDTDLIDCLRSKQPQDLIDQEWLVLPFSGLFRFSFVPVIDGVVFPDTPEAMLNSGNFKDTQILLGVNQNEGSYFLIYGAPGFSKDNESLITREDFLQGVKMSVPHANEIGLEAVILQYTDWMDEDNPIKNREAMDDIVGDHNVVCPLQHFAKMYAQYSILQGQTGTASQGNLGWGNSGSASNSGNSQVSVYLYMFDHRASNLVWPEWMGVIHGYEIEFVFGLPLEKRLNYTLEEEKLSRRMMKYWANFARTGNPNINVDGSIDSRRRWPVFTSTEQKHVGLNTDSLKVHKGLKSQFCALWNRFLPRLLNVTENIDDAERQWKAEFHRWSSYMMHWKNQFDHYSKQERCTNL

Compound	% Inhibition of AChE [1]	IC50 [2] [µM]	inhibition at 100 µM [3] [%]
6-deoxyclitoriacetal [compound 7]	37.9 ± 5.0		
O=C(/C=C/c1ccc(O)cc1)NCCCCN(CCCNC(=O)/C=C/c1ccc(O)cc1)C(=O)/C=C/c1ccc(O)cc1 [compound 5, N^1,N^5,N^10-(E)-tri-p-coumaroylspermidine]		102 ± 8.1	43.8 ± 1.9
COC1=CC(=O)[C@]2(C=C1OC)OC[C@H]1Oc3c(ccc4c3C=CC(C)(C)O4)C(=O)[C@H]12 [compound 8, amorphispironone]			37.6 ± 2.7
